Earlier results in PMC11070408, “Bifunctional octadentate pseudopeptides as Zirconium-89 chelators for immuno-PET applications” (EJNMMI Radiopharmacy and Chemistry, 2024).

Parameters: method as in Sarbisheh and Salih [2020]
Conditions: ref Sarbisheh and Salih [2020]

SMILES: CC(=O)N(O)CCCCCNC(=O)CCC(=O)N(O)CCCCCNC(=O)CCC(=O)N(O)CCCCCNC(=O)CCC(=O)NCC(CNC(=O)CCC(=O)NCCCCCN(O)C(=O)CCC(=O)NCCCCCN(O)C(=O)CCC(=O)NCCCCCN(O)C(C)=O)Cc1ccc([N+](=O)[O-])cc1 [DFO2]
- solubility in water: poor
